≈ marks a conversion by molar mass, not a printed value.

Consider two compounds from patent US4076814A, “Preventive and curative compositions against mycoplasmosis” (Sankyo Company Limited, priority 1975, dated 1978).

The test system of experiment [1] is MRL-4 strain of mycoplasma pulmonis. The experiment is described as follows: Curative effect in mice infected with MRL-4 strain of mycoplasma pulmonis by oral administration in feed. In kind it is in vivo. Conditions: 10 days, after one month. The protocol:
Each of the dithiocarbamic acid derivatives as indicated below with Compound No. was added to a feed and administered orally to mice infected artificially with MRL-4 strain of mycoplasma pulmonis. The effectiveness of the treatment was evaluated. Six groups, each group consisting of ten female mice which were negative in the test for mycoplasmosis, were used. After MRL-4 strain of mycoplasma pulmonis was cultured in PPLO agar medium, the colonies of the surface of the medium were diluted with a phosphate buffer solution to prepare a solution containing about 10^9 /ml of mycoplasma. 0.1 ml of the microbe-containing solution was injected intravenously to the tail of each mouse. For consecutive 10 days from the next day of the injection, the mice were fed with a powdery feed containing the active compound at respective concentrations of 0.04, 0.02, 0.01 and 0.005%, respectively. During the experiment period, all the procedures were conducted in a vinyl isolater.
After one month from the starting of the experiment, the presence of arthritis was visually investigated and at the same time the presence of pneumonia was also investigated after dissection. Recovery tests of mycoplasma and general bacteria were conducted using the joints and lungs of host subjects as the testing materials.

In a further experiment the test system is Mycoplasma gallisepticum. In words: Antimicrobial test, conventional agar plate dilution method, Mycoplasma gallisepticum. The class given is cell-based. Conditions: Mycoplasmoides gallisepticum, read-out: Minimum Inhibitory Concentration, Mycoplasma gallisepticum. The source says: (§1) ANTIMICROBIAL TEST AGAINST THREE STRAINS OF MYCOPLASMA
(§2) The test was effected by a conventional agar plate dilution method using the indicated strains of mycoplasma. The dithiocarbamic acid derivatives as shown below with Compound Nos. were employed in the test.

The test system of a further experiment is Mycoplasma pulmonis. The experiment is described as follows: Antimicrobial test, conventional agar plate dilution method, Mycoplasma pulmonis. The class given is cell-based. The note with it: Mycoplasma, read-out: Minimum Inhibitory Concentration, Mycoplasma pulmonis.
Description: as §1, §2

A further experiment relates to Mycoplasma hyorhinis. In words: Antimicrobial test, conventional agar plate dilution method, Mycoplasma hyorhinis. The class given is cell-based. The note with it: Mycoplasma, read-out: Minimum Inhibitory Concentration, Mycoplasma hyorhinis.
Description: as §1, §2

Regarding `CCN(CC)C(=S)SCCC(C)=O` [compound 79, 2-Acetylethyl diethyldithiocarbamate], the Attack rate arthritis in experiment [1] (0.005% in feed) was 2/10; in experiment [1] (0.01% in feed) it was 0/10; in experiment [1] (0.02% in feed), 0/10; in experiment [1] (0.04% in feed), 0/10. Also, the Attack rate pneumonia in experiment [1] (0.005% in feed), in experiment [1] (0.01% in feed), in experiment [1] (0.02% in feed) and in experiment [1] (0.04% in feed) was 0/10 throughout. The “Recovery of mycoplasma joint” value is 2/10 in experiment [1] (0.005% in feed), 0/10 in experiment [1] (0.01% in feed), 0/10 in experiment [1] (0.02% in feed) and 0/10 in experiment [1] (0.04% in feed). The “Recovery of mycoplasma lung” value in experiment [1] (0.005% in feed), in experiment [1] (0.01% in feed), in experiment [1] (0.02% in feed) and in experiment [1] (0.04% in feed) was 0/10 in each case. For the same compound, the MIC in the experiment with Mycoplasma gallisepticum, in the experiment on Mycoplasma pulmonis and with Mycoplasma hyorhinis was 0.012 µg/mL (≈ 0.0547 µM) in each case.

In the case of `CC(=O)CCSC(=S)N1CCCCC1` [compound 88, 2-Acetylethyl 1-piperidinecarbodithioate], the Attack rate arthritis in experiment [1] (0.005% in feed) was 3/10; in experiment [1] (0.01% in feed) it was 1/10; in experiment [1] (0.02% in feed), 0/10; in experiment [1] (0.04% in feed), 0/10. For the same compound, the Attack rate pneumonia in experiment [1] (0.005% in feed), in experiment [1] (0.01% in feed), in experiment [1] (0.02% in feed) and in experiment [1] (0.04% in feed) was 0/10 each time. Besides, the “Recovery of mycoplasma joint” value is 3/10 in experiment [1] (0.005% in feed), 1/10 in experiment [1] (0.01% in feed), 0/10 in experiment [1] (0.02% in feed) and 0/10 in experiment [1] (0.04% in feed). In addition, the “Recovery of mycoplasma lung” value in experiment [1] (0.005% in feed), in experiment [1] (0.01% in feed), in experiment [1] (0.02% in feed) and in experiment [1] (0.04% in feed) was 0/10 each time. Moreover, the MIC in the experiment with Mycoplasma gallisepticum stood at 0.05 µg/mL (≈ 0.216 µM); in the experiment on Mycoplasma pulmonis it was 0.05 µg/mL (≈ 0.216 µM); in the experiment on Mycoplasma hyorhinis it was 0.025 µg/mL (≈ 0.108 µM).
